Results: patent US10004701B2, “Methods and compositions for treating infection” (UNIVERSITY OF ROCHESTER, priority 2012, dated 2018)
Counter-ions that a name gives are not always drawn. Like-named read-outs stand apart in the source and are kept apart here.

Tests used:
Assay in all cases: AK assay 384-well format, Prestwick library screening
E. cloacae = assay type: cell-based, Enterobacter cloacae; settings: 50 μM final drug concentration; for fold induction at 50 µM: Enterobacter cloacae, 3 h
E. coli = assay type: cell-based, Escherichia coli; settings: 50 μM final drug concentration; for fold induction at 50 µM: Escherichia coli, 3 h
[1] = tested on: A. baumannii strain 98-37-09; assay type: cell-based, Acinetobacter baumannii; settings: 50 μM final drug concentration; for fold induction at 50 µM: Acinetobacter baumannii, 983709, 3 h
P. aeruginosa = assay type: cell-based, Pseudomonas aeruginosa; settings: 50 μM final drug concentration; for fold induction at 50 µM: Pseudomonas aeruginosa, 3 h
E. faecium = assay type: cell-based, Enterococcus faecium; settings: 50 μM final drug concentration; for fold induction at 50 µM: Enterococcus faecium, 3 h
[2] = tested on: S. aureus strain USA300-0114; assay type: cell-based, Staphylococcus aureus; settings: 50 μM final drug concentration; for fold induction at 50 µM: Staphylococcus aureus, USA300, 3 h
K. pneumoniae = assay type: cell-based, Klebsiella pneumoniae; settings: 50 μM final drug concentration; for fold induction at 50 µM: Klebsiella pneumoniae, 3 h
[3] = planktonic E. cloacae, positive cutoff 3-fold increase, read-out: AK-based Prestwick library screening result, E. cloacae (fold increase in extracellular AK activity)
[4] = planktonic E. coli, positive cutoff 3-fold increase, read-out: AK-based Prestwick library screening result, E. coli (fold increase in extracellular AK activity)
[5] = planktonic A. baumannii, positive cutoff 3-fold increase, read-out: AK-based Prestwick library screening result, A. baumannii (fold increase in extracellular AK activity)
[6] = planktonic P. aeruginosa, positive cutoff 3-fold increase, read-out: AK-based Prestwick library screening result, P. aeruginosa (fold increase in extracellular AK activity)
[7] = planktonic E. faecium, positive cutoff 3-fold increase, read-out: AK-based Prestwick library screening result, E. faecium (fold increase in extracellular AK activity)
[8] = planktonic S. aureus, positive cutoff 3-fold increase, read-out: AK-based Prestwick library screening result, S. aureus (fold increase in extracellular AK activity)
[9] = planktonic K. pneumoniae, positive cutoff 3-fold increase, read-out: AK-based Prestwick library screening result, K. pneumoniae (fold increase in extracellular AK activity)
[10] = 384-well format, cutoff for positive-scoring molecules 3-fold increase
[11] = planktonic E. cloacae, 384-well, cutoff for positive-scoring molecules 3-fold increase, read-out: AK-based Prestwick Library Screening Results: E. cloacae (increase in extracellular AK activity)
[12] = planktonic E. coli, 384-well, cutoff for positive-scoring molecules 3-fold increase, read-out: AK-based Prestwick Library Screening Results: E. coli (increase in extracellular AK activity)
[13] = planktonic A. baumannii, 384-well, cutoff for positive-scoring molecules 3-fold increase, read-out: AK-based Prestwick Library Screening Results: A. baumannii (increase in extracellular AK activity)
[14] = planktonic P. aeruginosa, 384-well, cutoff for positive-scoring molecules 3-fold increase, read-out: AK-based Prestwick Library Screening Results: P. aeruginosa (increase in extracellular AK activity)
[15] = planktonic E. faecium, 384-well, cutoff for positive-scoring molecules 3-fold increase, read-out: AK-based Prestwick Library Screening Results: E. faecium (increase in extracellular AK activity)
[16] = planktonic S. aureus, 384-well, cutoff for positive-scoring molecules 3-fold increase, read-out: AK-based Prestwick Library Screening Results: S. aureus (increase in extracellular AK activity)
[17] = planktonic K. pneumoniae, 384-well, cutoff for positive-scoring molecules 3-fold increase, read-out: AK-based Prestwick Library Screening Results: K. pneumoniae (increase in extracellular AK activity)

Work on `CC1CCc2c(N3CCC(O)CC3)c(F)cc3c(=O)c(C(=O)O)cn1c23` (stereo not shown) [Nadifloxacin] yielded a fold induction at 50 µM (E. cloacae; [3]) of 1.7, a fold induction at 50 µM (E. coli; [4]) of 13.4 and a fold induction at 50 µM [1, 5] of 2.9. For the same compound, the fold induction at 50 µM (P. aeruginosa; [6]) was 17.7, the fold induction at 50 µM (E. faecium; [7]) was 2.8 and the fold induction at 50 µM [2, 8] was 4.3. The fold induction at 50 µM (K. pneumoniae; [9]) was 5.2.
`CN(C)CCCSC(=N)N` [Dimaprit dihydrochloride] gave a fold induction at 50 µM (E. cloacae; [3]) of 1, a fold induction at 50 µM (E. coli; [4]) of 0.8 and a fold induction at 50 µM [1, 5] of 0.8. It also gave a fold induction at 50 µM (P. aeruginosa; [6]) of 0.8, a fold induction at 50 µM (E. faecium; [7]) of 0.9 and a fold induction at 50 µM [2, 8] of 0.7. For the same compound, the fold induction at 50 µM (K. pneumoniae; [9]) was 0.7.
In the case of `COC(=O)C1=CO[C@@H](C)[C@H]2CN3CCc4c([nH]c5ccccc45)[C@@H]3C[C@H]12.Cl` [Ajmalicine hydrochloride], the “AK-based Prestwick Library Screening Results, E. cloacae (increase in extracellular AK activity)” value (E. cloacae; planktonic E. cloacae, cutoff for positive-scoring molecules 3-fold increase) is reported as 1.2, the “AK-based Prestwick Library Screening Results, E. coli (increase in extracellular AK activity)” value (E. coli; planktonic E. coli, cutoff for positive-scoring molecules 3-fold increase) is reported as 0.9 and the “AK-based Prestwick Library Screening Results, A. baumannii (increase in extracellular AK activity)” value ([1]; planktonic A. baumannii, cutoff for positive-scoring molecules 3-fold increase) is reported as 0.9. The “AK-based Prestwick Library Screening Results, P. aeruginosa (increase in extracellular AK activity)” value (P. aeruginosa; planktonic P. aeruginosa, cutoff for positive-scoring molecules 3-fold increase) was 0.9, the “AK-based Prestwick Library Screening Results, E. faecium (increase in extracellular AK activity)” value (E. faecium; planktonic E. faecium, cutoff for positive-scoring molecules 3-fold increase) was 0.9 and the “AK-based Prestwick Library Screening Results, S. aureus (increase in extracellular AK activity)” value ([2]; planktonic S. aureus, cutoff for positive-scoring molecules 3-fold increase) was 0.5. The “AK-based Prestwick Library Screening Results, K. pneumoniae (increase in extracellular AK activity)” value (K. pneumoniae; planktonic K. pneumoniae, cutoff for positive-scoring molecules 3-fold increase) was 0.7.
In the case of `Cc1c(N(C)C)c(=O)n(-c2ccccc2)n1C` [Amidopyrine], the “AK-based Prestwick Library Screening Results, E. cloacae (increase in extracellular AK activity)” value (E. cloacae; [10]) is reported as 0.4, the “AK-based Prestwick Library Screening Results, E. coli (increase in extracellular AK activity)” value (E. coli; [10]) is reported as 0.5 and the “AK-based Prestwick Library Screening Results, A. baumannii (increase in extracellular AK activity)” value [1, 10] is reported as 0.4. For the same compound, the “AK-based Prestwick Library Screening Results, P. aeruginosa (increase in extracellular AK activity)” value (P. aeruginosa; [10]) was 0.4, the “AK-based Prestwick Library Screening Results, E. faecium (increase in extracellular AK activity)” value (E. faecium; [10]) was 0.9 and the “AK-based Prestwick Library Screening Results, S. aureus (increase in extracellular AK activity)” value [2, 10] was 0.4. The “AK-based Prestwick Library Screening Results, K. pneumoniae (increase in extracellular AK activity)” value (K. pneumoniae; [10]) was 0.5.
Work on `CCCCOc1cc(C(=O)OCCN(CC)CC)ccc1N` [Benoxinate hydrochloride] yielded a fold induction at 50 µM (E. cloacae; [11]) of 1.4, a fold induction at 50 µM (E. coli; [12]) of 1.3 and a fold induction at 50 µM [1, 13] of 1.1. The fold induction at 50 µM (P. aeruginosa; [14]) was 0.9, the fold induction at 50 µM (E. faecium; [15]) was 0.9 and the fold induction at 50 µM [2, 16] was 1. It also gave a fold induction at 50 µM (K. pneumoniae; [17]) of 1.
`CC#C[C@]1(O)CC[C@H]2[C@@H]3CCC4=CC(=O)CCC4=C3[C@@H](c3ccc(N(C)C)cc3)C[C@@]21C` [Mifepristone] gave a fold induction at 50 µM (E. cloacae; [11]) of 1.4, a fold induction at 50 µM (E. coli; planktonic E. coli, 384-well, […], read-out: AK-based Prestwick Library Screening Results: E. coli (increase in extracellular AK activity)) of 1.3 and a fold induction at 50 µM [1, 13] of 1.1. It also gave a fold induction at 50 µM (P. aeruginosa; [14]) of 1, a fold induction at 50 µM (E. faecium; [15]) of 1.1 and a fold induction at 50 µM [2, 16] of 0.7. It also gave a fold induction at 50 µM (K. pneumoniae; [17]) of 0.9.
In the case of `CC(=O)CC(c1ccc([N+](=O)[O-])cc1)c1c(O)c2ccccc2oc1=O` (stereo not shown) [Acenocoumarol], the fold induction at 50 µM (E. cloacae; 384-well format, cutoff for positive-scoring molecules 3-fold increase, read-out: AK-based Prestwick Library Screening Results, E. cloacae (increase in extracellular AK activity)) is reported as 0.9, the fold induction at 50 µM (E. coli; 384-well format, cutoff for positive-scoring molecules 3-fold increase, read-out: AK-based Prestwick Library Screening Results, E. coli (increase in extracellular AK activity)) is reported as 0.9 and the fold induction at 50 µM ([1]; 384-well format, cutoff for positive-scoring molecules 3-fold increase, read-out: AK-based Prestwick Library Screening Results, A. baumannii (increase in extracellular AK activity)) is reported as 0.8. The fold induction at 50 µM (P. aeruginosa; 384-well format, cutoff for positive-scoring molecules 3-fold increase, read-out: AK-based Prestwick Library Screening Results, P. aeruginosa (increase in extracellular AK activity)) was 0.9, the fold induction at 50 µM (E. faecium; 384-well format, cutoff for positive-scoring molecules 3-fold increase, read-out: AK-based Prestwick Library Screening Results, E. faecium (increase in extracellular AK activity)) was 1 and the fold induction at 50 µM ([2]; 384-well format, cutoff for positive-scoring molecules 3-fold increase, read-out: AK-based Prestwick Library Screening Results, S. aureus (increase in extracellular AK activity)) was 0.8. The fold induction at 50 µM (K. pneumoniae; 384-well format, cutoff for positive-scoring molecules 3-fold increase, read-out: AK-based Prestwick Library Screening Results, K. pneumoniae (increase in extracellular AK activity)) was 0.7.
Compound `COc1ccc([C@@H]2Sc3ccccc3N(CCN(C)C)C(=O)[C@@H]2OC(C)=O)cc1` [Diltiazem hydrochloride] has a fold induction at 50 µM (E. cloacae; [11]) of 1.5, a fold induction at 50 µM (E. coli; [12]) of 1 and a fold induction at 50 µM [1, 13] of 1. For the same compound, the fold induction at 50 µM (P. aeruginosa; [14]) was 0.9, the fold induction at 50 µM (E. faecium; [15]) was 0.9 and the fold induction at 50 µM [2, 16] was 0.8. The fold induction at 50 µM (K. pneumoniae; [17]) was 1.
`CC(C)(O/N=C(\C(=O)N[C@@H]1C(=O)N2C(C(=O)[O-])=C(C[n+]3ccccc3)CS[C@H]12)c1csc(N)n1)C(=O)O` [Ceftazidime pentahydrate] showed a fold induction at 50 µM (E. cloacae; planktonic E. cloacae, cutoff for positive-scoring molecules 3-fold increase, read-out: AK-based Prestwick Library Screening Results, E. cloacae (increase in extracellular AK activity)) of 12.9, a fold induction at 50 µM (E. coli; planktonic E. coli, cutoff for positive-scoring molecules 3-fold increase, read-out: AK-based Prestwick Library Screening Results, E. coli (increase in extracellular AK activity)) of 11.5 and a fold induction at 50 µM ([1]; planktonic A. baumannii, cutoff for positive-scoring molecules 3-fold increase, read-out: AK-based Prestwick Library Screening Results, A. baumannii (increase in extracellular AK activity)) of 0.5. It also gave a fold induction at 50 µM (P. aeruginosa; planktonic P. aeruginosa, cutoff for positive-scoring molecules 3-fold increase, read-out: AK-based Prestwick Library Screening Results, P. aeruginosa (increase in extracellular AK activity)) of 7.8, a fold induction at 50 µM (E. faecium; planktonic E. faecium, cutoff for positive-scoring molecules 3-fold increase, read-out: AK-based Prestwick Library Screening Results, E. faecium (increase in extracellular AK activity)) of 0.9 and a fold induction at 50 µM ([2]; planktonic S. aureus, cutoff for positive-scoring molecules 3-fold increase, read-out: AK-based Prestwick Library Screening Results, S. aureus (increase in extracellular AK activity)) of 0.4. The fold induction at 50 µM (K. pneumoniae; planktonic K. pneumoniae, cutoff for positive-scoring molecules 3-fold increase, read-out: AK-based Prestwick Library Screening Results, K. pneumoniae (increase in extracellular AK activity)) was 3.2.
Iproniazide phosphate was tested, and the “AK-based Prestwick Library Screening Results, E. cloacae (increase in extracellular AK activity)” value (E. cloacae; [10]) was 0.8, the “AK-based Prestwick Library Screening Results, E. coli (increase in extracellular AK activity)” value (E. coli; [10]) was 0.8 and the “AK-based Prestwick Library Screening Results, A. baumannii (increase in extracellular AK activity)” value [1, 10] was 0.7. For the same compound, the “AK-based Prestwick Library Screening Results, P. aeruginosa (increase in extracellular AK activity)” value (P. aeruginosa; [10]) was 0.7, the “AK-based Prestwick Library Screening Results, E. faecium (increase in extracellular AK activity)” value (E. faecium; [10]) was 1.0 and the “AK-based Prestwick Library Screening Results, S. aureus (increase in extracellular AK activity)” value [2, 10] was 1.0. The “AK-based Prestwick Library Screening Results, K. pneumoniae (increase in extracellular AK activity)” value (K. pneumoniae; [10]) was 0.7.
